Laboratory results from patent US11261175B2 (priority 2017, dated 2022).

How the values were obtained:
Format in all cases: cell-based
[1] = test system: JFH5a-Rluc-ad34 virus (HCV GT-2a); test: Anti-HCV activity using HCVcc (JFH5a-Rluc-ad34 virus) in Huh 7.5.1 cells, Renilla luciferase readout; settings: Hepatitis C virus, GT2A, Huh-7.5.1, 72 h, read-out: HCV wt. GT-2a
Description: <Experimental Example 1> Measurement of Anti-HCV Activity of Compounds of Examples Using HCVcc
Step 1: Cell Line and Cell Culture
Huh 7.5.1 cells were grown in Dulbecco's Modified Eagle's medium (DMEM; Gibco) supplemented with antibiotics (100 U/mL penicillin, 10 μg/mL streptomycin) and 10% heat-inactivated fetal bovine serum (ΔFBS; PEAK) in a CO2 incubator at 37° C. with […].
Huh7.5.1 cells were transfected with in vitro transcription RNA of JFH5a-Rluc-ad34, a derivative of JFH1 with adaptive mutations in E2 and p7 regions, by electroporation. JFH5a-Rluc-ad34 virus contains Renilla luciferase (Rluc), which is convenient for virus proliferation assay. The cell culture medium containing HCV was collected 3-5 days after the electroporation and then filtered through a […] pore size filter.
Step 3: Antiviral Activity Test Using Infectious HCV Particles
Huh 7.5.1 cells were inoculated with JFH5a-Rluc-ad34 virus and incubated for 4 hours. Four hours after the virus inoculation, the Huh7.5.1 cells infected with HCV were cultured in the medium containing the compound of examples serially diluted. Three days later, the cells were harvested and the intracellular luciferase activity was measured using Renilla luciferase assay system (Promega). Finally, the luciferase activity was normalized with those obtained from the negative control cells (mock-treated cells).

[2] = test system: HCV genotype 1b replicon with NS5A L31V mutation; test: Transiently transfected assay of genotype 1b resistance mutant RNA L31V; settings: Hepatitis C virus, Huh-7.5.1, 72 h, read-out: HCV Mutation L31V
From the text: (§1) <Experimental Example 3> Transiently Transfected Assay of Genotype 1b Resistance Mutant RNAs
(§2) Replicon genomes substituted with Y93H, L31V and L31V+Y93H (double mutant), the resistance mutants to Daclatasvir with mutations at the NS5A protein domain 1.
(§3) These HCV resistance mutant genomes were linearized with scal restriction enzyme, and then the mutated HCV RNA was synthesized through in vitro transcription. Huh 7.5.1 cells were individually electroporated with HCV RNA with resistant mutations and plated in a 12 well plate. After 4 hours, Huh7.5.1 cells were seeded in DMEM containing the compounds of examples serially diluted for 3 days. Three days later, the cells were harvested and the intracellular luciferase activity was measured. The luciferase activity was normalized with those obtained from the negative control cells (mock-treated cells).

[3] = test system: HCV replicon S52-Feo (genotype 3a); test: Anti-HCV activity using HCV replicon S52-Feo (genotype 3a) in Huh 7.5.1 cells, luciferase readout; settings: Hepatitis C virus, 72 h; Huh 7.5.1 cells with S52-Feo replicon, 3 days, firefly luciferase; read-out: HCV wt. GT-3a
[4] = test system: HCV genotype 1b replicon with NS5A L31V+Y93H (double mutant); test: Transiently transfected assay of genotype 1b resistance mutant RNA L31V+Y93H (double mutant); settings: Hepatitis C virus, Huh-7.5.1, 72 h, read-out: HCV Mutation L31V + Y93H
From the text: as §1, §2, §3

[5] = test system: HCV genotype 1b replicon with NS5A Y93H mutation; test: Transiently transfected assay of genotype 1b resistance mutant RNA Y93H; settings: Hepatitis C virus, Huh-7.5.1, 72 h, read-out: HCV Mutation Y93H
From the text: as §1, §2, §3

[6] = test system: HCV replicon NK5.1-Gluc (genotype 1b); test: Anti-HCV activity using HCV replicon NK5.1-Gluc (genotype 1b) in Huh 7.5.1 cells, luciferase readout; settings: Hepatitis C virus, 72 h; Huh 7.5.1 cells with NK5.1-Gluc replicon, 3 days, Gaussia luciferase; read-out: HCV wt. GT-1b

SMILES	EC50 [1]	EC50 [2]	EC50 [3]	EC50 [4]	EC50 [5]	EC50 [6]
COC(=O)N[C@H](C(=O)N1CCC[C@@H]1C(=O)Nc1ccc2c(c1)C(CCCCC(F)(F)F)(CCCCC(F)(F)F)c1cc(NC(=O)[C@@H]3CCCN3C(=O)[C@H](NC(=O)OC)c3ccccc3)ccc1-2)c1ccccc1 [Example 5, methyl ((R)-2-((S)-2-((7-((R)-1-((S)-2-((methoxycarbonyl)amino)-2-phenylacetyl)pyrrolidine-2-carboxyamido)-9,9-bis(5,5,5-trifluoropentyl)-9H-fluorene-2-yl)carbamoyl)pyrrolidine-1-yl)-2-oxo-1-phenylethyl)carbamate]	1 to 100 nM	0.1 to 1 nM	0.01 to 0.1 nM	> 100 nM	> 100 nM	0.001 to 0.01 nM
CCCCC1(CCCC)c2cc(NC(=O)[C@@H]3CC(=O)CN3C(=O)[C@H](NC(=O)OC)c3ccccc3)ccc2-c2ccc(NC(=O)[C@@H]3CC(=O)CN3C(=O)[C@H](NC(=O)OC)c3ccccc3)cc21 [Example 6, dimethyl ((1R,1′R)-((5S,5′S)-(((9,9-dibutyl-9H-fluorene-2,7-diyl)bis(azanediyl))bis(carbonyl))bis(3-oxopyrrolidine-5,1-diyl))bis(2-oxo-1-phenylethane-2,1-diyl))dicarbamate]	0.1 to 1 nM	0.001 to 0.01 nM	0.01 to 0.1 nM	1 to 100 nM	0.1 to 1 nM	0.01 to 0.1 nM
CCCCC1(CCCC)c2cc(NC(=O)[C@@H]3CC(=O)CN3C(=O)[C@H](NC(=O)OC)c3ccccc3)ccc2-c2ccc(NC(=O)[C@@H]3CC4(CN3C(=O)[C@H](NC(=O)OC)c3ccccc3)OCCO4)cc21 [Example 7, methyl ((R)-2-((S)-8-((9,9-dibutyl-7-((S)-1-((R)-2-((methoxycarbonyl)amino)-2-phenylacetyl)-4-oxopyrrolidine-2-carboxyamido)-9H-fluorene-2-yl)carbamoyl)-1,4-dioxa-7-azaspiro[4.4]nonane-7-yl)-2-oxo-1-phenylethyl)carbamate]	1 to 100 nM	0.001 to 0.01 nM	0.01 to 0.1 nM	0.1 to 1 nM	0.01 to 0.1 nM	0.01 to 0.1 nM
CCC1(CC)c2cc(NC(=O)[C@@H]3CCCN3C(=O)[C@H](NC(=O)OC)c3ccccc3)ccc2-c2ccc(-c3cnc([C@@H]4CCCN4C(=O)[C@@H](NC(=O)OC)C(C)C)[nH]3)cc21 [Example 8, methyl ((S)-1-((S)-2-(5-(9,9-diethyl-7-((S)-1-((R)-2-((methoxycarbonyl)amino)-2-phenylacetyl)pyrrolidine-2-carboxyamido)-9H-fluorene-2-yl)-1H-imidazole-2-yl)pyrrolidine-1-yl)-3-methyl-1-oxobutane-2-yl)carbamate]	0.001 to 0.01 nM	0.01 to 0.1 nM	0.01 to 0.1 nM	1 to 100 nM	0.01 to 0.1 nM	0.001 to 0.01 nM
CCCCC1(CCCC)c2cc(NC(=O)[C@@H]3CCCN3C(=O)[C@H](NC(=O)OC)c3ccccc3)ccc2-c2ccc(-c3cnc([C@@H]4CCCN4C(=O)[C@@H](NC(=O)OC)C(C)C)[nH]3)cc21 [Example 9, methyl ((S)-1-((S)-2-(5-(9,9-dibutyl-7-((S)-1-((R)-2-((methoxycarbonyl)amino)-2-phenylacetyl)pyrrolidine-2-carboxyamido)-9H-fluorene-2-yl)-1H-imidazole-2-yl)pyrrolidine-1-yl)-3-methyl-1-oxobutane-2-yl)carbamate]	0.01 to 0.1 nM	0.01 to 0.1 nM	0.01 to 0.1 nM	0.1 to 1 nM	0.01 to 0.1 nM	0.001 to 0.01 nM
CCCCC1(CCCC)c2cc(NC(=O)[C@@H]3CCCN3C(=O)[C@H](NC(=O)OC)c3ccccc3)ccc2-c2ccc(NC(=O)[C@@H]3CC(=O)CN3C(=O)[C@H](NC(=O)OC)c3ccccc3)cc21 [Example 10, methyl ((R)-2-((S)-2-((9,9-dibutyl-7-((S)-1-((R)-2-((methoxycarbonyl)amino)-2-phenylacetyl)pyrrolidine-2-carboxyamido)-9H-fluorene-2-yl)carbamoyl)-4-oxopyrrolidine-1-yl)-2-oxo-1-phenylethyl)carbamate]	0.1 to 1 nM	0.001 to 0.01 nM	0.01 to 0.1 nM	1 to 100 nM	0.1 to 1 nM	0.001 to 0.01 nM
